# Measured values as given in article PMC12146700 (Proceedings of the National Academy of Sciences of the …, 2025).
# Numbering of substitutions follows the chain as printed.
# What was measured:
# [1] = target: T1, WT ATP8B1 fragment (residues 803 to 880) (Homo sapiens, UniProt O43520); experiment: surface plasmon resonance, protein covalently coupled on CM5 chip; type: binding; conditions: PIP2 injected at different concentrations; acyl chains not told
# T1 sequence (O43520 803-880): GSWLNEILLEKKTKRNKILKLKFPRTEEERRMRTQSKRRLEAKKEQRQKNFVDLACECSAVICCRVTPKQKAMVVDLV
# [2] = target: T2, WT ATP8B1 fragment (residues 803 to 880) (Homo sapiens, UniProt O43520, K824A/R832A/R833A/R835A); experiment: as above; type: binding; conditions: PIP2 injected at different concentrations; acyl chains not told
# T2 sequence (O43520 803-880 K824A/R832A/R833A/R835A): T1 sequence (O43520 803-880) with K22A, R30A, R31A, R33A
# [3] = target: T3, human ATP8B1 (full-length, N-terminal GST-tagged) (Homo sapiens, UniProt O43520); experiment: ATPase activity stimulated by phospholipid; type: biochemical; conditions: activation of ATPase activity; acyl chains not told
# T3 sequence (O43520 1-1251): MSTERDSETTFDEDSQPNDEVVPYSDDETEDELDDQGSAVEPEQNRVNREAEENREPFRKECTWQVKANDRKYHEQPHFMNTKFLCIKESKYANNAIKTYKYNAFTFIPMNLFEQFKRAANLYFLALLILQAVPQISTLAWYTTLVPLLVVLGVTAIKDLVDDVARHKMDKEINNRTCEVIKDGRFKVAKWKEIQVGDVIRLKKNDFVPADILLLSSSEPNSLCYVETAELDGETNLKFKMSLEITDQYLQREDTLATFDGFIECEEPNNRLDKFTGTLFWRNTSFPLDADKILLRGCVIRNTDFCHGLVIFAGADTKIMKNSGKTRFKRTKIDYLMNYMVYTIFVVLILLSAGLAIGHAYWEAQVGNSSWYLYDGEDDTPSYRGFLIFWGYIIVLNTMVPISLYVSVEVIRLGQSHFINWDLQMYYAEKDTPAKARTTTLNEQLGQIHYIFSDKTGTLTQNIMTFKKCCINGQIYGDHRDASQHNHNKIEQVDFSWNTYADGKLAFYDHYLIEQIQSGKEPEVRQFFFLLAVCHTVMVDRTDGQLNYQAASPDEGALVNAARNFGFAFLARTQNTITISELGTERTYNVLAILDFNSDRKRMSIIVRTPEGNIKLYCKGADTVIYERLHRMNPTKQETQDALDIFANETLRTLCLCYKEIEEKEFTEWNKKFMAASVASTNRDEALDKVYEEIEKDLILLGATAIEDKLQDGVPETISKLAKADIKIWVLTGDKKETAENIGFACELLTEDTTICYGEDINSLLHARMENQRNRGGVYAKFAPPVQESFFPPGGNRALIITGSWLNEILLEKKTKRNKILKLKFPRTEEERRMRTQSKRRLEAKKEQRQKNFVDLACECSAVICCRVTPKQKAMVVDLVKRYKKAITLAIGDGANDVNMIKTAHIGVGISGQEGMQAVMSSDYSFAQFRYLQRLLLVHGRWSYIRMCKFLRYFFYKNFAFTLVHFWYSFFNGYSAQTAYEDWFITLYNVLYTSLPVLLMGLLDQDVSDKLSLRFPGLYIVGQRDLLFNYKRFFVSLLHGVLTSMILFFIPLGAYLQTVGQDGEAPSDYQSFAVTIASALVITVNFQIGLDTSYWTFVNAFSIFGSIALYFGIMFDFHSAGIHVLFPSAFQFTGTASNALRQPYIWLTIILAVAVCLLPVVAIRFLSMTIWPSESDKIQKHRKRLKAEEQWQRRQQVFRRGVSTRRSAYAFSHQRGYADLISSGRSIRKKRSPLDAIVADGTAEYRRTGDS
substance,measurement,setting,value
PIP2,Kd,[1],~11.5 µM
same,Kd,[2],~63.6 µM
same,EC50,[3],232 ± 35.2 µM
